In PubChem BioAssay (NCI) one finds GI50 and TGI data, which are given here for nine molecules.

Each structure is given as a SMILES string. “And” between values parts separate entries of the source, which are not always exact repeats. Identical values can stand only once.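 Where inhibition never reached the appropriate level, the endpoint shown equals the highest concentration tested. Otherwise, values were interpolated linearly from a five-concentration, 48-hour dose response in 96-well plates. GI50 marks 50% less growth. At the TGI there is no net growth.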

Test systems include SK-MEL-28 melanoma; SW-620 colon; HL-60(TB) leukemia; SF-295 CNS; NCI-H23 lung; MDA-MB-231 breast; MCF7 breast; EKVX NSCLC; M14 melanoma; HOP-92 NSCLC.
Test in all cases: DTP human tumour cell line panel, 48 h

For orientation: GI50 means the concentration at which growth is held to half of that of the control. The TGI is the concentration giving total growth inhibition. Read a low TGI as more potent growth arrest.

On to `CN(C)CCOc1ccc(/C(=C(/CCCl)c2ccccc2)c2ccccc2)cc1`, for which the GI50 in the experiment with SK-MEL-28 melanoma was 0.912 µM; in the experiment on SW-620 colon it was 0.898 µM; in the experiment with HL-60(TB) leukemia it was 1.06 µM; in the experiment with SF-295 CNS, 1.02 µM; in the experiment with NCI-H23 lung it was 1.42 µM; in the experiment on MDA-MB-231 breast it was 1.07 µM. Besides, the GI50 is 0.565 µM with MCF7 breast, 1.81 µM in the experiment with EKVX NSCLC and 0.96 µM with M14 melanoma. Besides, the TGI in the experiment with HL-60(TB) leukemia is 2.11 µM and 15 µM; with NCI-H23 lung it was 5.52 µM and 31.3 µM; in the experiment on EKVX NSCLC, 21 µM and 29.4 µM; with HOP-92 NSCLC, 17.1 µM.
Consider `C=C(C)C1CC2(C)C(C)CC(OC(=O)/C(C)=C\C)CC2C(OC(=O)/C(C)=C\C)C1O` (configuration not stated), for which the TGI is more than 100 µM in the experiment on SK-MEL-28 melanoma; more than 100 µM in the experiment with SW-620 colon; 43.6 µM with HL-60(TB) leukemia; more than 100 µM in the experiment on NCI-H23 lung; more than 100 µM in the experiment on MDA-MB-231 breast; more than 100 µM in the experiment on MCF7 breast. In addition, the TGI in the experiment with EKVX NSCLC, in the experiment on M14 melanoma and with HOP-92 NSCLC was more than 100 µM each time.
In the case of `COc1ccc2c(c1)C(=O)C(=O)c1cc(O)c(OC)c(OC)c1-2`, the GI50 with SK-MEL-28 melanoma is 1.88 µM; in the experiment on SW-620 colon it was 2.8 µM; in the experiment with SF-295 CNS it was 1.77 µM; in the experiment with NCI-H23 lung it was 1.77 µM; in the experiment with MDA-MB-231 breast, 2.1 µM; in the experiment with MCF7 breast it was 1.96 µM. The values for the GI50 in the experiment with EKVX NSCLC, in the experiment on M14 melanoma and in the experiment on HOP-92 NSCLC were 0.457 µM, 1.73 µM and 1.7 µM, respectively. Besides, the TGI with SK-MEL-28 melanoma is 1.67 µM and 3.58 µM; in the experiment with SW-620 colon, 3.18 µM and 9.14 µM; in the experiment on HL-60(TB) leukemia, 0.681 µM; with SF-295 CNS, 1.65 µM and 3.15 µM; with NCI-H23 lung it was 1.77 µM and 4.23 µM; in the experiment with MDA-MB-231 breast, 1.91 µM and 3.87 µM. The TGI with MCF7 breast is 1.74 µM and 3.59 µM; in the experiment on EKVX NSCLC, 2.09 µM and 1.68 µM; in the experiment on M14 melanoma, 1.71 µM and 3.11 µM; with HOP-92 NSCLC it was 1.79 µM and 3.19 µM.
As for `OCC1OC(OCC(O)C(O)C(O)C(/C=N/Nc2ccccc2)=N/Nc2ccccc2)C(O)C(O)C1O` (configuration not stated), the TGI with SK-MEL-28 melanoma, in the experiment with SW-620 colon, with HL-60(TB) leukemia, in the experiment on SF-295 CNS, with NCI-H23 lung and in the experiment with MDA-MB-231 breast was more than 100 µM throughout. Also, the TGI in the experiment on MCF7 breast, in the experiment on EKVX NSCLC, in the experiment on M14 melanoma and with HOP-92 NSCLC was more than 100 µM each time.
As for `CC1CCN(CCCCCOc2ccc3oc4cc(Cl)ccc4c(=O)c3c2)CC1`, the GI50 is 7.07 µM in the experiment with SK-MEL-28 melanoma; 6.16 µM with SW-620 colon; 2.81 µM with HL-60(TB) leukemia; 6.8 µM in the experiment with SF-295 CNS; 7.36 µM in the experiment on NCI-H23 lung; 7.6 µM in the experiment with MDA-MB-231 breast. Also, the GI50 in the experiment with MCF7 breast was 5.9 µM; in the experiment with EKVX NSCLC, 7.03 µM; in the experiment with M14 melanoma, 1.15 µM; with HOP-92 NSCLC it was 6.51 µM. The TGI amounted to 13.7 µM in the experiment on SK-MEL-28 melanoma; 13.3 µM in the experiment with SW-620 colon; 10.5 µM in the experiment with HL-60(TB) leukemia; 13.2 µM in the experiment with SF-295 CNS; 14.6 µM in the experiment on NCI-H23 lung; 14.6 µM in the experiment on MDA-MB-231 breast. For the same molecule, the TGI worked out at 14.2 µM in the experiment with MCF7 breast, 14.3 µM with EKVX NSCLC, 2.63 µM with M14 melanoma and 14.8 µM with HOP-92 NSCLC.
Consider `CN1CCN(c2ccc3nc(-c4c(N)c5c(F)cccc5[nH]c4=O)[nH]c3c2)CC1`, for which the GI50 in the experiment on SK-MEL-28 melanoma was 1.51 µM and 0.801 µM and 1.43 µM; in the experiment with SW-620 colon, 0.533 µM and 0.379 µM and 0.576 µM; in the experiment on HL-60(TB) leukemia, 0.86 µM and 0.314 µM and 1.2 µM; in the experiment on SF-295 CNS, 2.41 µM and 1.09 µM and 3.14 µM; with NCI-H23 lung, 1.53 µM and 0.9 µM and 2.05 µM; with MDA-MB-231 breast it was 1.32 µM and 1.14 µM and 2.05 µM. Moreover, the GI50 in the experiment with MCF7 breast is 0.875 µM and 0.71 µM and 1.21 µM; with EKVX NSCLC it was 2.38 µM and > 2.44 µM and 4.23 µM; in the experiment on M14 melanoma, 0.41 µM and 0.34 µM and 0.445 µM; with HOP-92 NSCLC, 0.621 µM and 0.422 µM and 0.645 µM. The TGI is 2.96 µM and 2.79 µM and 3.02 µM in the experiment on SK-MEL-28 melanoma; 1.94 µM and 3.21 µM and 2.65 µM in the experiment on SW-620 colon; 2.8 µM and 2.36 µM and 3.12 µM with HL-60(TB) leukemia; 8.1 µM and > 6.69 µM and 8.95 µM in the experiment with SF-295 CNS; 6.44 µM and > 3.6 µM and 11.1 µM in the experiment on NCI-H23 lung; 5 µM and > 4.19 µM and 8.57 µM in the experiment on MDA-MB-231 breast. In addition, the TGI with MCF7 breast is 2.78 µM and > 4.82 µM and 6.76 µM; in the experiment with EKVX NSCLC, 9.65 µM and > 7.22 µM and 16.2 µM; in the experiment with M14 melanoma, 1.71 µM and 1.54 µM and 1.93 µM; in the experiment with HOP-92 NSCLC, 4.56 µM and > 2.93 µM and 5.82 µM.
As to `COc1cnc2c(c1)C(=O)c1c-2n(CCCN2CCC(O)CC2)c(=O)c2cc(F)ccc12`, the GI50 with SK-MEL-28 melanoma was 1.39 µM; in the experiment with SW-620 colon, 0.107 µM; in the experiment on HL-60(TB) leukemia, 0.293 µM; in the experiment with NCI-H23 lung, 0.292 µM; with MDA-MB-231 breast it was 0.485 µM; in the experiment with MCF7 breast, 0.0312 µM. Further, the values for the GI50 in the experiment on EKVX NSCLC, in the experiment on M14 melanoma and in the experiment on HOP-92 NSCLC were 0.271 µM, 0.254 µM and 0.31 µM, respectively. Moreover, the TGI with SK-MEL-28 melanoma turned out to be 9.8 µM; in the experiment on SW-620 colon, 2.1 µM; in the experiment with HL-60(TB) leukemia it was 0.96 µM; in the experiment with NCI-H23 lung it was 1.32 µM; with MDA-MB-231 breast, 2.1 µM; with MCF7 breast, 1.17 µM. The TGI amounted to 1.62 µM in the experiment with EKVX NSCLC, 1.63 µM in the experiment on M14 melanoma and 3.22 µM in the experiment with HOP-92 NSCLC.
With `O=c1cc(N2CCNCC2)oc2c(-c3ccccc3)cccc12`, the GI50 was 39.6 µM in the experiment on SK-MEL-28 melanoma; 82.9 µM in the experiment with SW-620 colon; 29.4 µM in the experiment with HL-60(TB) leukemia; 39.8 µM in the experiment on SF-295 CNS; more than 100 µM in the experiment with NCI-H23 lung; 24.1 µM with MDA-MB-231 breast. The GI50 was 40.7 µM with MCF7 breast, 19.8 µM with EKVX NSCLC, 15.6 µM in the experiment on M14 melanoma and 17.3 µM in the experiment with HOP-92 NSCLC. For the same molecule, the TGI in the experiment with SK-MEL-28 melanoma, in the experiment with SW-620 colon, in the experiment with HL-60(TB) leukemia, in the experiment with SF-295 CNS, in the experiment with NCI-H23 lung and in the experiment on MDA-MB-231 breast was more than 100 µM each time. The TGI with MCF7 breast was more than 100 µM; with EKVX NSCLC it was more than 100 µM; in the experiment with M14 melanoma it was 29.1 µM; in the experiment on HOP-92 NSCLC, more than 100 µM.
With `O=C(CSC(c1ccccc1)c1ccccc1)N/N=C/c1cccc(Cl)c1`, the GI50 is 15 µM with SW-620 colon; 13.8 µM in the experiment on HL-60(TB) leukemia; 22.9 µM in the experiment with SF-295 CNS; 14.9 µM in the experiment with NCI-H23 lung; 14.4 µM in the experiment with MDA-MB-231 breast; 19.1 µM with MCF7 breast. Moreover, the GI50 in the experiment with EKVX NSCLC is 16.3 µM; with M14 melanoma, 15.3 µM; in the experiment on HOP-92 NSCLC, 21.2 µM. The TGI was 29.2 µM with SW-620 colon; 33.9 µM in the experiment on HL-60(TB) leukemia; 44.8 µM in the experiment with SF-295 CNS; 29 µM in the experiment on NCI-H23 lung; 28.6 µM with MDA-MB-231 breast; 38.4 µM in the experiment with MCF7 breast. The figures for the TGI in the experiment on EKVX NSCLC, with M14 melanoma and in the experiment with HOP-92 NSCLC were 35.9 µM, 29 µM and 37.2 µM, respectively.
